For this assay, the system named is L1210 leukemia ip in BDF1 mice, survival T/C. Nature of the assay: NCI In Vivo Anticancer Drug Screen. Data for tumor model L1210 Leukemia (intraperitoneal) in B6D2F1 (BDF1) mice. Particulars: endpoint: mean survival time, higher = longer survival. A digest of the protocol: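 Survival endpoint. Drug-treated group vs vehicle group, expressed as T divided by C. Tumor passaged by transplantation.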

The mark [1] stands for this setting: dose: 100.0 mg/kg/injection, schedule: Q01DX001 (ip), vehicle: saline.
[2] abbreviates: dose: 200.0 mg/kg/injection, schedule: Q01DX001 (ip), vehicle: saline.
The mark [3] stands for this setting: dose: 400.0 mg/kg/injection, schedule: Q01DX001 (ip), vehicle: saline.
Where [4] appears, read: dose: 100.0 mg/kg/injection, schedule: Q01DX009 (ip), vehicle: saline with Tween-80.
[5] abbreviates: dose: 100.0 mg/kg/injection, schedule: Q04DX003 (ip), vehicle: saline.
The mark [6] stands for this setting: dose: 200.0 mg/kg/injection, schedule: Q01DX009 (ip), vehicle: saline with Tween-80.
Setting [7] is: dose: 200.0 mg/kg/injection, schedule: Q04DX003 (ip), vehicle: saline.
Where [8] appears, read: dose: 100.0 mg/kg/injection, schedule: Q04DX003 (ip), vehicle: saline with Tween-80.
The mark [9] stands for this setting: dose: 200.0 mg/kg/injection, schedule: Q04DX003 (ip), vehicle: saline with Tween-80.
Setting [10] is: dose: 400.0 mg/kg/injection, schedule: Q04DX003 (ip), vehicle: saline with Tween-80.

Structures are written as SMILES. Where “and” joins values, the source holds several entries; their conditions need not be identical. Equal entries are not always repeated. Toxic doses and inconclusive results are not listed.

Consider `CC12CCCCCCC1O2` (stereo not drawn), for which the T/C (dose: 75.0 mg/kg/injection, schedule: Q01DX001 (ip), vehicle: other) was 100 % of control; the T/C (dose: 150.0 mg/kg/injection, schedule: Q01DX001 (ip), vehicle: other) is 89 % of control; the T/C (dose: 300.0 mg/kg/injection, schedule: Q01DX001 (ip), vehicle: other) was 95 % of control.

As to `Cc1ccc(S(=O)(=O)OCCCN(CCCOS(=O)(=O)c2ccc(C)cc2)c2ccccc2)cc1`, the T/C is, setting by setting: (dose: 50.0 mg/kg/injection, schedule: Q01DX001 (ip), vehicle: saline) 101 % of control; under setting [1], 86 % of control; under setting [2], 95 % of control; under setting [3], 95 % of control.

As to `COC(=O)C(Cc1c[nH]c2ccccc12)N(C)C` (stereo not drawn), the T/C is 101 % of control (dose: 100.0 mg/kg/injection, schedule: Q01DX001 (ip), vehicle: other); 103 % of control (dose: 200.0 mg/kg/injection, schedule: Q01DX001 (ip), vehicle: other); 98 % of control (dose: 400.0 mg/kg/injection, schedule: Q01DX001 (ip), vehicle: other).

On to `COc1ccc(/C(C#N)=C2C=C(Cl)/C(=N/O)C=C/2Cl)cc1`, for which the T/C is, setting by setting: under setting [1], 91 % of control; under setting [4], 93 % of control; under setting [5], 91 % of control; under setting [2], 95 % of control; under setting [6], 98 % of control; under setting [7], 87 % of control. Also, the T/C was 96 % of control under setting [3] and 86 % of control (dose: 400.0 mg/kg/injection, schedule: Q04DX003 (ip), vehicle: saline).

Consider `ClB(Cl)c1ccccc1`, for which the T/C reads like this: under setting [1], 92 % of control; under setting [2], 92 % of control; under setting [3], 101 % of control.

As for `O=c1[nH]nc(-c2ccc(Cl)cc2Cl)s1`, the T/C is 95 % of control (dose: 100.0 mg/kg/injection, schedule: Q04DX003 (ip), vehicle: Klucel (hydroxypropylcellulose) (HPC)); 101 % of control (dose: 200.0 mg/kg/injection, schedule: Q04DX003 (ip), vehicle: Klucel (hydroxypropylcellulose) (HPC)); 112 % of control (dose: 400.0 mg/kg/injection, schedule: Q04DX003 (ip), vehicle: Klucel (hydroxypropylcellulose) (HPC)).

With `CCOC(=O)c1ccc(Nc2sc(C(=O)c3ccc(Br)cc3)c(N)c2C#N)cc1`, the T/C by setting is: (dose: 100.0 mg/kg/injection, schedule: Q04DX002 (ip), vehicle: saline with Tween-80) 102 % of control; (dose: 200.0 mg/kg/injection, schedule: Q04DX002 (ip), vehicle: saline with Tween-80) 94 % of control; (dose: 400.0 mg/kg/injection, schedule: Q04DX002 (ip), vehicle: saline with Tween-80) 88 % of control.

Consider `Cc1nnc2c3ccccc3cnn12`, for which the T/C is, setting by setting: (dose: 75.0 mg/kg/injection, schedule: Q01DX001 (ip), vehicle: carboxymethylcellulose (CMC)) 98 % of control; (dose: 150.0 mg/kg/injection, schedule: Q01DX001 (ip), vehicle: carboxymethylcellulose (CMC)) 97 % of control; (dose: 300.0 mg/kg/injection, schedule: Q01DX001 (ip), vehicle: carboxymethylcellulose (CMC)) 98 % of control.

Regarding `CS(=O)(=O)OCCN(CCOS(C)(=O)=O)c1ccc(N=O)c(F)c1`, the T/C runs as follows: (dose: 7.0 mg/kg/injection, schedule: Q01DX001 (ip), vehicle: saline) 151 % of control; (dose: 40.0 mg/kg/injection, schedule: Q01DX001 (ip), vehicle: saline) 98 % of control; (dose: 80.0 mg/kg/injection, schedule: Q01DX001 (ip), vehicle: saline) 93 % of control.

`Cc1ccc(-n2c(O)c(C=N)c(=O)[nH]c2=O)cc1`: the T/C is, setting by setting: under setting [4], 97 % of control; under setting [6], 93 % of control.

For the compound `[O-][n+]1onc2c(-c3ccccc3)nnc(-c3ccccc3)c21`, the T/C under setting [8] is 108 % of control, the T/C under setting [9] is 110 % of control and the T/C under setting [10] is 111 % of control.

Regarding `O=C1OC(/C=C/c2ccccc2)=NC/1=C\c1cccc([N+](=O)[O-])c1`, the T/C by setting is: (dose: 25.0 mg/kg/injection, schedule: Q04DX002 (ip), vehicle: Klucel (hydroxypropylcellulose) (HPC)) 93 % of control; (dose: 50.0 mg/kg/injection, schedule: Q04DX002 (ip), vehicle: Klucel (hydroxypropylcellulose) (HPC)) 104 % of control; (dose: 100.0 mg/kg/injection, schedule: Q04DX002 (ip), vehicle: Klucel (hydroxypropylcellulose) (HPC)) 89 % of control.

Regarding `CS(=O)(=O)Oc1c(Cl)c(Cl)c(OS(C)(=O)=O)c(Cl)c1Cl`, the T/C by setting is: (dose: 100.0 mg/kg/injection, schedule: Q01DX001 (ip), vehicle: carboxymethylcellulose (CMC)) 101 % of control; (dose: 200.0 mg/kg/injection, schedule: Q01DX001 (ip), vehicle: carboxymethylcellulose (CMC)) 92 % of control; (dose: 400.0 mg/kg/injection, schedule: Q01DX001 (ip), vehicle: carboxymethylcellulose (CMC)) 98 % of control.

For the compound `O=S1(=O)C=C(Cl)C2C3CC(C(Cl)C3Cl)C21` (stereo not drawn), the T/C is, setting by setting: (dose: 5.0 mg/kg/injection, schedule: Q01DX009 (ip), vehicle: carboxymethylcellulose (CMC)) 94 % of control; (dose: 10.0 mg/kg/injection, schedule: Q01DX001 (ip), vehicle: carboxymethylcellulose (CMC)) 94 % of control; (dose: 10.0 mg/kg/injection, schedule: Q01DX009 (ip), vehicle: carboxymethylcellulose (CMC)) 94 % of control; (dose: 10.0 mg/kg/injection, schedule: Q04DX003 (ip), vehicle: carboxymethylcellulose (CMC)) 92 % of control; (dose: 20.0 mg/kg/injection, schedule: Q01DX001 (ip), vehicle: carboxymethylcellulose (CMC)) 100 % of control; (dose: 20.0 mg/kg/injection, schedule: Q01DX009 (ip), vehicle: carboxymethylcellulose (CMC)) 91 % of control. For the same compound, the T/C is, setting by setting: (dose: 20.0 mg/kg/injection, schedule: Q04DX003 (ip), vehicle: carboxymethylcellulose (CMC)) 94 % of control; (dose: 40.0 mg/kg/injection, schedule: Q01DX001 (ip), vehicle: carboxymethylcellulose (CMC)) 103 % of control; (dose: 40.0 mg/kg/injection, schedule: Q04DX003 (ip), vehicle: carboxymethylcellulose (CMC)) 94 % of control.

On to `CCOC(=O)C1C(=O)C(C(C2C(=O)C(C(=O)OCC)C(c3ccc(O)cc3)C(C(=O)OCC)C2=O)C(O)C(O)C(O)CO)C(=O)C(C(=O)OCC)C1c1ccc(O)cc1` (stereo not drawn) (tested in a mixture with another compound), for which the T/C runs as follows: (dose: 50.0 mg/kg/injection, schedule: Q01DX009 (ip), vehicle: Klucel (hydroxypropylcellulose) (HPC)) 101 % of control and 96 % of control; (dose: 100.0 mg/kg/injection, schedule: Q01DX009 (ip), vehicle: Klucel (hydroxypropylcellulose) (HPC)) 93 % of control and 96 % of control; (dose: 200.0 mg/kg/injection, schedule: Q01DX009 (ip), vehicle: Klucel (hydroxypropylcellulose) (HPC)) 104 % of control and 107 % of control.

`Cc1cc[n+]2cc3c(ccc4ccccc43)c(C)c2c1`: the T/C is, setting by setting: (dose: 2.0 mg/kg/injection, schedule: Q01DX015 (ip), vehicle: carboxymethylcellulose (CMC)) 103 % of control; (dose: 4.0 mg/kg/injection, schedule: Q01DX015 (ip), vehicle: carboxymethylcellulose (CMC)) 124 % of control; (dose: 8.0 mg/kg/injection, schedule: Q01DX015 (ip), vehicle: carboxymethylcellulose (CMC)) 117 % of control; (dose: 16.0 mg/kg/injection, schedule: Q01DX015 (ip), vehicle: carboxymethylcellulose (CMC)) 98 % of control; (dose: 25.0 mg/kg/injection, schedule: Q01DX001 (ip), vehicle: carboxymethylcellulose (CMC)) 107 % of control.

Turning to `CCOc1cc(-c2nc3ccccc3s2)ccc1O`, the T/C was 96 % of control under setting [8], 101 % of control under setting [9] and 96 % of control under setting [10].

With `C=C1CC2(CCC23COC(=O)C3=C)OC1=O` (stereo not drawn), the T/C is, setting by setting: (dose: 1.56 mg/kg/injection, schedule: Q01DX001 (ip), vehicle: other) 98 % of control; (dose: 3.12 mg/kg/injection, schedule: Q01DX001 (ip), vehicle: other) 102 % of control and 109 % of control; (dose: 6.25 mg/kg/injection, schedule: Q01DX001 (ip), vehicle: other) 105 % of control and 121 % of control; (dose: 12.5 mg/kg/injection, schedule: Q01DX001 (ip), vehicle: other) 102 % of control.

Turning to `CCOC(=O)c1nc(NC)sc1N`, the T/C was 98 % of control (dose: 12.5 mg/kg/injection, schedule: Q01DX009 (ip), vehicle: saline); 104 % of control (dose: 25.0 mg/kg/injection, schedule: Q01DX009 (ip), vehicle: saline); 97 % of control and 98 % of control (dose: 50.0 mg/kg/injection, schedule: Q01DX009 (ip), vehicle: saline); 102 % of control under setting [5]; 100 % of control under setting [7].
